Laboratory results from patent US20240181081A1, “Compositions and Methods for Treatment of Myotonic Dystrophy Type 1 with CRISPR/SACAS9” (Vertex Pharmaceuticals Incorporated, priority 2021, published 2024).

What was measured:
[1] = tested on: CTG repeat expansion in the 3′ UTR of human DMPK gene; assay: DOUBLE-cut screening: CTG repeat excision by loss-of-signal ddPCR in primary DM1 patient myoblasts; assay type: cell-based; conditions: sgRNA pair RNP, mean of upstream and downstream ddPCR assays; for % of CTG repeat excision efficiency by ddPCR (DNA-PKi): 3 μM Compound 6 for 48 hrs; for % of CTG repeat excision efficiency by ddPCR (Vehicle): DMSO 48 hrs
Procedure, shortened: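 Paired upstream/downstream sgRNAs, each as RNP with recombinant SaCas9 (20 pmol protein:60 pmol sgRNA), mixed 1:1 and nucleofected into primary DM1 myoblasts; cells then given DMSO or 3 μM DNA-PKi Compound 6 for 48 hrs. Genomic DNA taken 72 hrs post-nucleofection; excision is mean of upstream and downstream loss-of-signal ddPCR, normalized to DMPK exon 1 reference.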

[2] = tested on: CUG RNA foci in primary DM1 patient myoblasts; assay: DOUBLE-cut screening: FISH staining of RNA foci in primary DM1 patient myoblasts; assay type: cell-based, human; conditions: sgRNA pair RNP, 72 hrs post nucleofection; for % of CUG foci free nuclei (DNA-PKi): 3 μM Compound 6 for 48 hrs; for % of CUG foci free nuclei (Vehicle): DMSO 48 hrs
Procedure, shortened: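 Primary DM1 patient myoblasts nucleofected with paired upstream/downstream sgRNA–SaCas9 RNPs (20 pmol protein, 60 pmol sgRNA each), then treated 48 hrs with DMSO or 3 μM DNA-PK inhibitor. At 72 hrs post nucleofection, CUG foci stained by Cy3-PNA(CAG)5 FISH with MBNL1 co-staining and quantified by high-content confocal imaging.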

“SaU7 + SaD12: SaCas9 sgRNA pair, SEQ ID NOs: 7 and 20 (guide 1 CGCGGCCGGCGAACGGGGCTCG; guide 2 TCAGTGCATCCAAAACGTGGAT; listed as DNA, chemistry not fully specified)” was tested, and the “% of CTG repeat excision efficiency by ddPCR (DNA-PKi)” value [1] was 62.84%, the “% of CTG repeat excision efficiency by ddPCR (Vehicle)” value [1] was 39.71% and the “% of CUG foci free nuclei (DNA-PKi)” value [2] was 86.06%. For the same substance, the “% of CUG foci free nuclei (Vehicle)” value [2] was 66.41%.

With “SaU7 + SaD15: SaCas9 sgRNA pair, SEQ ID NOs: 7 and 23 (guide 1 CGCGGCCGGCGAACGGGGCTCG; guide 2 GACAATAAATACCGAGGAATGT; listed as DNA, chemistry not fully specified)” the “% of CTG repeat excision efficiency by ddPCR (DNA-PKi)” value [1] was 66.66%, the “% of CTG repeat excision efficiency by ddPCR (Vehicle)” value [1] was 36.65% and the “% of CUG foci free nuclei (DNA-PKi)” value [2] was 89.69%. For the same substance, the “% of CUG foci free nuclei (Vehicle)” value [2] was 64.62%.

“SaU7 + SaD17: SaCas9 sgRNA pair, SEQ ID NOs: 7 and 25 (guide 1 CGCGGCCGGCGAACGGGGCTCG; guide 2 TTTATTCGCGAGGGTCGGGGGT; listed as DNA, chemistry not fully specified)” was tested, and the “% of CTG repeat excision efficiency by ddPCR (DNA-PKi)” value [1] was 55.97%, the “% of CTG repeat excision efficiency by ddPCR (Vehicle)” value [1] was 27.41% and the “% of CUG foci free nuclei (DNA-PKi)” value [2] was 75.53%. For the same substance, the “% of CUG foci free nuclei (Vehicle)” value [2] was 36.12%.

With “SaU7 + SaD18: SaCas9 sgRNA pair, SEQ ID NOs: 7 and 26 (guide 1 CGCGGCCGGCGAACGGGGCTCG; guide 2 GGGCCTTTTATTCGCGAGGGTC; listed as DNA, chemistry not fully specified)” the “% of CTG repeat excision efficiency by ddPCR (DNA-PKi)” value [1] was 48.08%, the “% of CTG repeat excision efficiency by ddPCR (Vehicle)” value [1] was 19.71% and the “% of CUG foci free nuclei (DNA-PKi)” value [2] was 73.07%. For the same substance, the “% of CUG foci free nuclei (Vehicle)” value [2] was 23.22%.

“SaU7 + SaD19: SaCas9 sgRNA pair, SEQ ID NOs: 7 and 27 (guide 1 CGCGGCCGGCGAACGGGGCTCG; guide 2 AGGACCCCCACCCCCGACCCTC; listed as DNA, chemistry not fully specified)” was tested, and the “% of CTG repeat excision efficiency by ddPCR (DNA-PKi)” value [1] was 56.22%, the “% of CTG repeat excision efficiency by ddPCR (Vehicle)” value [1] was 28.45% and the “% of CUG foci free nuclei (DNA-PKi)” value [2] was 81.47%. For the same substance, the “% of CUG foci free nuclei (Vehicle)” value [2] was 42.75%.

With “SaU7 +SaD3: SaCas9 sgRNA pair, SEQ ID NOs: 7 and 11 (guide 1 CGCGGCCGGCGAACGGGGCTCG; guide 2 CAACGATAGGTGGGGGTGCGTG; listed as DNA, chemistry not fully specified)” the “% of CTG repeat excision efficiency by ddPCR (DNA-PKi)” value [1] was 61.82%, the “% of CTG repeat excision efficiency by ddPCR (Vehicle)” value [1] was 41.26% and the “% of CUG foci free nuclei (DNA-PKi)” value [2] was 80.45%. For the same substance, the “% of CUG foci free nuclei (Vehicle)” value [2] was 39.24%.

For “SaU7 +SaD11: SaCas9 sgRNA pair, SEQ ID NOs: 7 and 19 (guide 1 CGCGGCCGGCGAACGGGGCTCG; guide 2 CAAAACGTGGATTGGGGTTGTT; listed as DNA, chemistry not fully specified)”, the “% of CTG repeat excision efficiency by ddPCR (DNA-PKi)” value [1] was 51.90%, the “% of CTG repeat excision efficiency by ddPCR (Vehicle)” value [1] was 25.10% and the “% of CUG foci free nuclei (DNA-PKi)” value [2] was 73.38%. For the same substance, the “% of CUG foci free nuclei (Vehicle)” value [2] was 36.96%.

“SaU7 +SaD13: SaCas9 sgRNA pair, SEQ ID NOs: 7 and 21 (guide 1 CGCGGCCGGCGAACGGGGCTCG; guide 2 CCCAACAACCCCAATCCACGTT; listed as DNA, chemistry not fully specified)” was tested, and the “% of CTG repeat excision efficiency by ddPCR (DNA-PKi)” value [1] was 55.97%, the “% of CTG repeat excision efficiency by ddPCR (Vehicle)” value [1] was 25.62% and the “% of CUG foci free nuclei (DNA-PKi)” value [2] was 78.52%. The “% of CUG foci free nuclei (Vehicle)” value [2] was 28.69%.

With “SaU7 +SaD20: SaCas9 sgRNA pair, SEQ ID NOs: 7 and 28 (guide 1 CGCGGCCGGCGAACGGGGCTCG; guide 2 AGATGGAGGGCCTTTTATTCGC; listed as DNA, chemistry not fully specified)” the “% of CTG repeat excision efficiency by ddPCR (DNA-PKi)” value [1] was 67.93%, the “% of CTG repeat excision efficiency by ddPCR (Vehicle)” value [1] was 39.72% and the “% of CUG foci free nuclei (DNA-PKi)” value [2] was 83.24%. For the same substance, the “% of CUG foci free nuclei (Vehicle)” value [2] was 63.33%.
